In patent US9932309B2, “2-oxo-3,4-dihydropyridine-5-carboxylates and their use” (UNIVERSITE DE LILLE 2 DROIT ET SANTE, priority 2014, dated 2018) one finds EC50, mTGR5 % trans and hTGR5 % trans data, which are given here for 20 compounds.

The target in one experiment is T1, mTGR5 (Mus musculus, UniProt Q80SS6).
T1 construct: expressed in transfected cells; host or cells: HEK293 cells, transiently co-transfected with the pCRE TA-Luciferase reporter
T1 sequence (Q80SS6 1-329): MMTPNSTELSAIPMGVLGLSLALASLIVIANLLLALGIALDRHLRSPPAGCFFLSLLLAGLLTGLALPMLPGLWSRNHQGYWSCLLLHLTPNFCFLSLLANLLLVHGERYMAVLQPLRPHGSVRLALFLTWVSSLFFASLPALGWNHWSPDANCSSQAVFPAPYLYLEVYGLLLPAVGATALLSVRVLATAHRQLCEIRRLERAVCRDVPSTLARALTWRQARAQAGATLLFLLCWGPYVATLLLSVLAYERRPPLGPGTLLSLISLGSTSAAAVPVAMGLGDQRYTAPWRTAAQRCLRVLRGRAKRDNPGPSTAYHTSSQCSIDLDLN
Put plainly: TGR5/CRE Luciferase Assay (mTGR5). It counts as cell-based. The note with it: for EC50: HEK 293 cells co-transfected with pCMV AC6-TGR5m and pCRE TA-Luciferase, overnight incubation; for mTGR5 % trans: percentage of the 10 μM LCA value, HEK 293 cells transfected with mTGR5. The gist of the method:
(§1)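 cAMP-dependent luciferase luminescence was measured after overnight compound exposure (duplicate concentration series) and fitted to a four-parameter logistic equation. Cells: HEK293 transiently co-expressing hTGR5 or mTGR5 with a CRE reporter; lithocholic acid at 10 μM was the reference agonist.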

Another experiment concerns the target T2, hTGR5 (Homo sapiens, UniProt Q8TDU6).
T2 construct: expressed in transfected cells; host or cells: HEK293 cells, transiently co-transfected with the pCRE TA-Luciferase reporter
T2 sequence (Q8TDU6 1-330): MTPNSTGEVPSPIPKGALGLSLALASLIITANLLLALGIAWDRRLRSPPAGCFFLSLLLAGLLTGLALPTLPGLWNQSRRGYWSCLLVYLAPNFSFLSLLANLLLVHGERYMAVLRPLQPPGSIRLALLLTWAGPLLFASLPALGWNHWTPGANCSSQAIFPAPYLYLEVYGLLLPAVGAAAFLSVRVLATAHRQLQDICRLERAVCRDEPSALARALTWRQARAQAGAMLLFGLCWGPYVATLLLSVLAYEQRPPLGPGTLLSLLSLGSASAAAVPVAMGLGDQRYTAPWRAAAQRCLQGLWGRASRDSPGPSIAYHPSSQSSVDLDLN
Put plainly: TGR5/CRE Luciferase Assay (hTGR5). It counts as cell-based. The note with it: for EC50: HEK 293 cells co-transfected with pCMV tag4b-TGR5h and pCRE TA-Luciferase, overnight incubation; for hTGR5 % trans: percentage of the 10 μM LCA value, HEK 293 cells transfected with hTGR5. The gist of the method: as §1

Regarding `COCCN1C(=O)CC(c2ccc(Cl)cc2)C(C(=O)OCc2ccc(OC)cc2)=C1C` (stereo not drawn) [Example 104, (4-methoxyphenyl)methyl 4-(4-chlorophenyl)-1-(2-methoxyethyl)-6-methyl-2-oxo-3,4-dihydropyridine-5-carboxylate], on mTGR5, the EC50 was determined as 0.2 µM and the mTGR5 % trans turned out to be 85%. On hTGR5, this compound displayed an EC50 of 0.2 µM and a hTGR5 % trans of 71%.
Regarding `COCCN1C=C(C(=O)NCc2ccccc2)C(c2ccc(Cl)cc2)CC1=O` (stereo not drawn) [Compound 33, N-benzyl-4-(4-chlorophenyl)-1-(2-methoxyethyl)-2-oxo-3,4-dihydropyridine-5-carboxamide], on mTGR5, the EC50 amounted to 11 µM and the mTGR5 % trans was found to be 14%. Moreover, at hTGR5, the EC50 was determined as 6.4 µM and the hTGR5 % trans worked out at 42%.
Taken in the same sequence, the figures for `COCCN1C=C(C(=O)OCc2ccccc2)C(c2ccc(Cl)cc2)CC1=O` (stereo not drawn) [Compound 32, Benzyl 4-(4-chlorophenyl)-1-(2-methoxyethyl)-2-oxo-3,4-dihydropyridine-5-carboxylate] were 1.1 µM, 55%, 0.6 µM and 77%.
Taken in the same sequence, the figures for `COCCN1C(=O)CC(c2ccc(Cl)cc2)C(C(=O)OCc2cccc(OC)c2)=C1C` (stereo not drawn) [Example 103, (3-methoxyphenyl)methyl 4-(4-chlorophenyl)-1-(2-methoxyethyl)-6-methyl-2-oxo-3,4-dihydropyridine-5-carboxylate] were 0.4 µM, 95%, 0.5 µM and 85%.
Taken in the same sequence, the figures for `CC1=C(C(=O)OCc2ccccc2)C(c2ccccc2)CC(=O)N1` (stereo not drawn) [Compound 14, 2-Methyl-6-oxo-4-phenyl-1,4,5,6-tetrahydro-pyridine-3-carboxylic acid benzyl ester] were 10.3 µM, 18%, 7.6 µM and 30%.
Take `COCCN1C(=O)CC(c2ccc(Cl)cc2)C(C(=O)NCc2ccccc2)=C1C` (stereo not drawn) [Example 75, N-benzyl-4-(4-chlorophenyl)-1-(2-methoxyethyl)-6-methyl-2-oxo-3,4-dihydropyridine-5-carboxamide]: on mTGR5, it took 18.3 µM to reach a half-maximal effect (EC50) and the mTGR5 % trans is listed as 25%. On hTGR5, this compound came in with an EC50 of 7.8 µM and a hTGR5 % trans of 34%.
Taken in the same sequence, the figures for `CC1=C(C(=O)OCc2ccccn2)[C@H](c2ccc(Cl)cc2)CC(=O)N1C[C@H]1CCCO1` (racemic) [Example 145, 2-pyridylmethyl (4S)-4-(4-chlorophenyl)-6-methyl-2-oxo-1-[[(2R)-tetrahydrofuran-2-yl]methyl]-3,4-dihydropyridine-5-carboxylate and 2-pyridylmethyl (4R)-4-(4-chlorophenyl)-6-methyl-2-oxo-1-[[(2S)-tetrahydrofuran-2-yl]methyl]-3,4-dihydropyridine-5-carboxylate] were 2.5 µM, 74%, 1 µM and 72%.
Turning to `CC1=C(C(=O)OCc2ccccc2)C(c2ccc(Cl)cc2)CC(=O)N1CCS(C)(=O)=O` (stereo not drawn) [Compound 62, Benzyl 4-(4-chlorophenyl)-6-methyl-1-(2-methylsulfonylethyl)-2-oxo-3,4-dihydropyridine-5-carboxylate], on mTGR5, the EC50 stood at 5.9 µM and the mTGR5 % trans was found to be 42%. On hTGR5, this compound showed an EC50 of 2.3 µM and a hTGR5 % trans of 69%.
Taken in the same sequence, the figures for `C#CCN1C(=O)CC(c2ccc(Cl)cc2)C(C(=O)OCc2ccccc2)=C1C` (stereo not drawn) [Compound 40, Benzyl 4-(4-chlorophenyl)-6-methyl-2-oxo-1-prop-2-ynyl-3,4-dihydropyridine-5-carboxylate] were 0.9 µM, 76%, 0.9 µM and 81%.
Taken in the same sequence, the figures for `COCCN1C(=O)CC(c2ccc(Cl)cc2)C(C(=O)OCc2ccc(C)cc2)=C1C` (stereo not drawn) [Example 100, p-tolylmethyl 4-(4-chlorophenyl)-1-(2-methoxyethyl)-6-methyl-2-oxo-3,4-dihydropyridine-5-carboxylate] were 0.4 µM, 89%, 0.6 µM and 72%.
On mTGR5, `COCCN1C(=O)CC(c2ccc(Cl)cc2)C(C(=O)OCc2cccc(C#N)c2)=C1C` (stereo not drawn) [Example 94, (3-cyanophenyl)methyl 4-(4-chlorophenyl)-1-(2-methoxyethyl)-6-methyl-2-oxo-3,4-dihydropyridine-5-carboxylate] had an EC50 of 0.4 µM and a mTGR5 % trans of 65%. Moreover, at hTGR5, the EC50 was 0.6 µM and the hTGR5 % trans was 61%.
Taken in the same sequence, the figures for `COCCN1C(=O)CC(c2ccc(Cl)cc2)C(C(=O)OCc2ccc(OCCCN(C)C)cc2)=C1C` (stereo not drawn) [Example 116, [4-[3-(dimethylamino)propoxy]phenyl]methyl 4-(4-chlorophenyl)-1-(2-methoxyethyl)-6-methyl-2-oxo-3,4-dihydropyridine-5-carboxylate] were 1.6 µM, 82%, 1.4 µM and 76%.
Take `COCCN1C(=O)CC(c2ccc(Cl)cc2)C(C(=O)OCc2ccc(-c3ccccc3)cc2)=C1C` (stereo not drawn) [Example 108, (4-phenylphenyl)methyl 4-(4-chlorophenyl)-1-(2-methoxyethyl)-6-methyl-2-oxo-3,4-dihydropyridine-5-carboxylate]: the figures for the EC50 on mTGR5 and at hTGR5 were 0.6 µM and 0.5 µM, respectively.
On mTGR5, `COCCCN1C(=O)CC(c2ccc(Cl)cc2)C(C(=O)OCc2ccccc2OC)=C1C` (stereo not drawn) [Compound 71, (2-methoxyphenyl)methyl 4-(4-chlorophenyl)-1-(3-methoxypropyl)-6-methyl-2-oxo-3,4-dihydropyridine-5-carboxylate] gave an EC50 of 0.8 µM and a mTGR5 % trans of 85%. On hTGR5, this compound showed an EC50 of 0.2 µM and a hTGR5 % trans of 94%.
On mTGR5, `COCCN1C(=O)CC(c2ccc(Cl)cc2Cl)C(C(=O)OCc2ccccc2OC)=C1C` (stereo not drawn) [Example 129, (2-methoxyphenyl)methyl 4-(2,4-dichlorophenyl)-1-(2-methoxyethyl)-6-methyl-2-oxo-3,4-dihydropyridine-5-carboxylate] had an EC50 of 0.9 µM and a mTGR5 % trans of 81%. For the same compound, on hTGR5, the midpoint of the response, the EC50, lay at 0.4 µM and the hTGR5 % trans amounted to 89%.
Taken in the same sequence, the figures for `CCCC1CC(=O)N(CCOC)C(C)=C1C(=O)OCc1ccccc1OC` (stereo not drawn) [Example 121, (2-methoxyphenyl)methyl 1-(2-methoxyethyl)-6-methyl-2-oxo-4-propyl-3,4-dihydropyridine-5-carboxylate] were 1.2 µM, 49%, 1.1 µM and 51%.
At mTGR5, `C=CCN1C(=O)CC(c2ccc(Cl)cc2)C(C(=O)OCc2ccccc2)=C1C` (stereo not drawn) [Compound 38, Benzyl 1-allyl-4-(4-chlorophenyl)-6-methyl-2-oxo-3,4-dihydropyridine-5-carboxylate] displayed an EC50 of 1.5 µM and a mTGR5 % trans of 54%. Also, at hTGR5, the EC50 amounted to 1.1 µM and the hTGR5 % trans was 75%.
Taken in the same sequence, the figures for `CN1C=C(C(=O)N(C)Cc2ccccc2)C(c2ccc(Cl)cc2)CC1=O` (stereo not drawn) [Compound 33a, N-benzyl-4-(4-chlorophenyl)-N,1-dimethyl-2-oxo-3,4-dihydropyridine-5-carboxamide] were 1.1 µM, 16%, 39 µM and 37%.
Taken in the same sequence, the figures for `CC1=C(C(=O)OCc2ccc(OCCCCS(=O)(=O)O)cc2)[C@H](c2ccc(Cl)cc2)CC(=O)N1C[C@H]1CCCO1` [Example 169, Ammonium; 4-[4-[[(4S)-4-(4-chlorophenyl)-6-methyl-2-oxo-1-[[(2R)-tetrahydrofuran-2-yl]methyl]-3,4-dihydropyridine-5-carbonyl]oxymethyl]phenoxy]butane-1-sulfonate] were 0.009 µM, 103%, 0.03 µM and 103%.
Taken in the same sequence, the figures for `CC1=C(C(=O)OCc2ccc(F)cc2Cl)C(c2ccc(Cl)cc2)CC(=O)N1C` (stereo not drawn) [Example 81, (2-chloro-4-fluoro-phenyl)methyl 4-(4-chlorophenyl)-1,6-dimethyl-2-oxo-3,4-dihydropyridine-5-carboxylate] were 1.3 µM, 62%, 0.5 µM and 86%.
